Experimental data: patent US10721934B2, “Enhanced preservative” (Arch Chemicals, Inc., priority 2013, dated 2020)

Assays:
Type in all cases: cell-based
[1] = system: Pseudomonas aeruginosa ATCC 15442; test: Minimum Inhibitory Concentration (MIC) test, 96 well microtiter plate; conditions: single chemical
Method: Microorganisms: Pseudomonas aeruginosa ATCC 15442
MIC set up: A 96 well microtiter plate Minimum Inhibitory Concentration (MIC) test was run in broth suitable for the test organism. Serially diluted actives were prepared in sterilized water, and the start-up concentration varied depending on the efficacy range. Inocula prepared in 2× suitable broth was added into each well, and the final concentrations of bacteria were adjusted to approximately 5×10^5.

[2] = system: Candida albicans; test: MIC test, 96 well microtiter plate; conditions: single chemical
Summary of the method: (§1)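 Broth microdilution MIC in broth suited to each organism; actives serially diluted in sterile water, starting concentration set by efficacy range. Inoculum in 2× broth added per well to approximately 5×10^5 final. Amines also tested combined with a pyrithione and two isothiazolinones.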

[3] = system: Aspergillus brasiliensis; test: MIC test, 96 well microtiter plate; conditions: single chemical
Summary of the method: as §1

[4] = system: Staphylococcus aureus; test: MIC test, 96 well microtiter plate; conditions: single chemical
Summary of the method: as §1

[5] = system: Aureobasidium pullulans; test: MIC test, 96 well microtiter plate; conditions: single chemical
Summary of the method: as §1

[6] = system: Escherichia coli; test: MIC test, 96 well microtiter plate; conditions: single chemical
Summary of the method: as §1

[7] = system: mixed bacterial inoculum (Pseudomonas aeruginosa, Enterobacter cloacae, Escherichia coli, Acinetobacter calcoaceticus); test: Repeated inoculation of standard acrylic paint, streak plate rating
Summary of the method: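 Acrylic paint containing pyrithione, isothiazolinone and biocide enhancing agent, alone or mixed at varied concentrations, was challenged three times with an aqueous suspension of the four bacteria in equal proportions. Samples were streak plated 24, 48 and 72 h after inoculation and the plates rated for growth.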

Zinc Pyrithione [ZnPT]
Minimum Inhibitory Concentration [1]: 62.5 ppm | Minimum Inhibitory Concentration [2]: 7.8 ppm | Minimum Inhibitory Concentration [3]: 15.6 ppm | Minimum Inhibitory Concentration [4]: 7.8 ppm | Minimum Inhibitory Concentration [5]: 3.9 ppm | Minimum Inhibitory Concentration [6]: 3.9 ppm | streak plate rating ([7]; Set Five, ZPT 50 ppm, 1st inoculation 24 h): 0 | streak plate rating ([7]; Set Five, ZPT 50 ppm, 1st inoculation 48 h): 0 | streak plate rating ([7]; Set Five, ZPT 50 ppm, 1st inoculation 72 h): 0 | streak plate rating ([7]; Set Five, ZPT 50 ppm, 2nd inoculation 24 h): 2 (6-15 viable microorganisms Lightly contaminated) | streak plate rating ([7]; Set Five, ZPT 50 ppm, 2nd inoculation 48 h): 0 | streak plate rating ([7]; Set Five, ZPT 50 ppm, 2nd inoculation 72 h): 0 | streak plate rating ([7]; Set Five, ZPT 50 ppm, 3rd inoculation 24 h): 3 (16-30 viable microorganisms Moderately contaminated) | streak plate rating ([7]; Set Five, ZPT 50 ppm, 3rd inoculation 48 h): 5 (>45 viable microorganisms Severely contaminated) | streak plate rating ([7]; Set Five, ZPT 50 ppm, 3rd inoculation 72 h): 5 (>45 viable microorganisms Severely contaminated) | streak plate rating ([7]; Set Four, ZPT 50 ppm, 1st inoculation 24 h): 0 | streak plate rating ([7]; Set Four, ZPT 50 ppm, 1st inoculation 48 h): 0 | streak plate rating ([7]; Set Four, ZPT 50 ppm, 1st inoculation 72 h): 0 | streak plate rating ([7]; Set Four, ZPT 50 ppm, 2nd inoculation 24 h): 2 (6-15 viable microorganisms Lightly contaminated) | streak plate rating ([7]; Set Four, ZPT 50 ppm, 2nd inoculation 48 h): 0 | streak plate rating ([7]; Set Four, ZPT 50 ppm, 2nd inoculation 72 h): 0 | streak plate rating ([7]; Set Four, ZPT 50 ppm, 3rd inoculation 24 h): 3 (16-30 viable microorganisms Moderately contaminated) | streak plate rating ([7]; Set Four, ZPT 50 ppm, 3rd inoculation 48 h): 5 (>45 viable microorganisms Severely contaminated) | streak plate rating ([7]; Set Four, ZPT 50 ppm, 3rd inoculation 72 h): 5 (>45 viable microorganisms Severely contaminated) | streak plate rating ([7]; Set One, ZPT 50 ppm, 1st inoculation 24 h): 3 (16-30 viable microorganisms Moderately contaminated) | streak plate rating ([7]; Set One, ZPT 50 ppm, 1st inoculation 48 h): 3 (16-30 viable microorganisms Moderately contaminated) | streak plate rating ([7]; Set One, ZPT 50 ppm, 2nd inoculation 24 h): 5 (>45 viable microorganisms Severely contaminated) | streak plate rating ([7]; Set One, ZPT 50 ppm, 2nd inoculation 48 h): 5 (>45 viable microorganisms Severely contaminated) | streak plate rating ([7]; Set One, ZPT 50 ppm, 2nd inoculation 72 h): 5 (>45 viable microorganisms Severely contaminated) | streak plate rating ([7]; Set One, ZPT 50 ppm, 3rd inoculation 24 h): 5 (>45 viable microorganisms Severely contaminated) | streak plate rating ([7]; Set One, ZPT 50 ppm, 3rd inoculation 48 h): 5 (>45 viable microorganisms Severely contaminated) | streak plate rating ([7]; Set One, ZPT 50 ppm, 3rd inoculation 72 h): 5 (>45 viable microorganisms Severely contaminated) | streak plate rating ([7]; Set Three, ZPT 50 ppm, 1st inoculation 24 h): 5 (>45 viable microorganisms Severely contaminated) | streak plate rating ([7]; Set Three, ZPT 50 ppm, 1st inoculation 48 h): 3 (16-30 viable microorganisms Moderately contaminated) | streak plate rating ([7]; Set Three, ZPT 50 ppm, 1st inoculation 72 h): 5 (>45 viable microorganisms Severely contaminated) | streak plate rating ([7]; Set Three, ZPT 50 ppm, 2nd inoculation 24 h): 5 (>45 viable microorganisms Severely contaminated) | streak plate rating ([7]; Set Three, ZPT 50 ppm, 2nd inoculation 48 h): 5 (>45 viable microorganisms Severely contaminated) | streak plate rating ([7]; Set Three, ZPT 50 ppm, 2nd inoculation 72 h): 5 (>45 viable microorganisms Severely contaminated) | streak plate rating ([7]; Set Three, ZPT 50 ppm, 3rd inoculation 24 h): 5 (>45 viable microorganisms Severely contaminated) | streak plate rating ([7]; Set Three, ZPT 50 ppm, 3rd inoculation 48 h): 5 (>45 viable microorganisms Severely contaminated) | streak plate rating ([7]; Set Three, ZPT 50 ppm, 3rd inoculation 72 h): 5 (>45 viable microorganisms Severely contaminated) | streak plate rating ([7]; Set Two, ZPT 25 ppm, 1st inoculation 24 h): 5 (>45 viable microorganisms Severely contaminated) | streak plate rating ([7]; Set Two, ZPT 25 ppm, 1st inoculation 48 h): 5 (>45 viable microorganisms Severely contaminated) | streak plate rating ([7]; Set Two, ZPT 25 ppm, 1st inoculation 72 h): 5 (>45 viable microorganisms Severely contaminated) | streak plate rating ([7]; Set Two, ZPT 25 ppm, 2nd inoculation 24 h): 5 (>45 viable microorganisms Severely contaminated) | streak plate rating ([7]; Set Two, ZPT 25 ppm, 2nd inoculation 48 h): 5 (>45 viable microorganisms Severely contaminated) | streak plate rating ([7]; Set Two, ZPT 25 ppm, 2nd inoculation 72 h): 5 (>45 viable microorganisms Severely contaminated) | streak plate rating ([7]; Set Two, ZPT 25 ppm, 3rd inoculation 24 h): 5 (>45 viable microorganisms Severely contaminated) | streak plate rating ([7]; Set Two, ZPT 25 ppm, 3rd inoculation 48 h): 5 (>45 viable microorganisms Severely contaminated) | streak plate rating ([7]; Set Two, ZPT 25 ppm, 3rd inoculation 72 h): 5 (>45 viable microorganisms Severely contaminated) | streak plate rating ([7]; Set Two, ZPT 50 ppm, 1st inoculation 24 h): 2 (6-15 viable microorganisms Lightly contaminated) | streak plate rating ([7]; Set Two, ZPT 50 ppm, 1st inoculation 48 h): 3 (16-30 viable microorganisms Moderately contaminated) | streak plate rating ([7]; Set Two, ZPT 50 ppm, 1st inoculation 72 h): 3 (16-30 viable microorganisms Moderately contaminated) | streak plate rating ([7]; Set Two, ZPT 50 ppm, 2nd inoculation 24 h): 4 (31-45 viable microorganisms Heavily contaminated) | streak plate rating ([7]; Set Two, ZPT 50 ppm, 2nd inoculation 48 h): 5 (>45 viable microorganisms Severely contaminated) | streak plate rating ([7]; Set Two, ZPT 50 ppm, 2nd inoculation 72 h): 5 (>45 viable microorganisms Severely contaminated) | streak plate rating ([7]; Set Two, ZPT 50 ppm, 3rd inoculation 24 h): 5 (>45 viable microorganisms Severely contaminated) | streak plate rating ([7]; Set Two, ZPT 50 ppm, 3rd inoculation 48 h): 5 (>45 viable microorganisms Severely contaminated) | streak plate rating ([7]; Set Two, ZPT 50 ppm, 3rd inoculation 72 h): 5 (>45 viable microorganisms Severely contaminated)
